The results in this text go back to patent US7994185B2, “Benzene sulfonamide thiazole and oxazole compounds” (Glaxo Smith Kline LLC, priority 2008, dated 2011).

The first assay deals with T1, BRAFV600E full-length (amino acids 2-766) (Homo sapiens, UniProt P15056, V600E).
T1 construct: His6-tagged BRAFV600E full-length (amino acids 2-766); His6; made in house; host or cells: baculovirus expression system (insect cells)
T1 sequence (P15056 2-766 V600E): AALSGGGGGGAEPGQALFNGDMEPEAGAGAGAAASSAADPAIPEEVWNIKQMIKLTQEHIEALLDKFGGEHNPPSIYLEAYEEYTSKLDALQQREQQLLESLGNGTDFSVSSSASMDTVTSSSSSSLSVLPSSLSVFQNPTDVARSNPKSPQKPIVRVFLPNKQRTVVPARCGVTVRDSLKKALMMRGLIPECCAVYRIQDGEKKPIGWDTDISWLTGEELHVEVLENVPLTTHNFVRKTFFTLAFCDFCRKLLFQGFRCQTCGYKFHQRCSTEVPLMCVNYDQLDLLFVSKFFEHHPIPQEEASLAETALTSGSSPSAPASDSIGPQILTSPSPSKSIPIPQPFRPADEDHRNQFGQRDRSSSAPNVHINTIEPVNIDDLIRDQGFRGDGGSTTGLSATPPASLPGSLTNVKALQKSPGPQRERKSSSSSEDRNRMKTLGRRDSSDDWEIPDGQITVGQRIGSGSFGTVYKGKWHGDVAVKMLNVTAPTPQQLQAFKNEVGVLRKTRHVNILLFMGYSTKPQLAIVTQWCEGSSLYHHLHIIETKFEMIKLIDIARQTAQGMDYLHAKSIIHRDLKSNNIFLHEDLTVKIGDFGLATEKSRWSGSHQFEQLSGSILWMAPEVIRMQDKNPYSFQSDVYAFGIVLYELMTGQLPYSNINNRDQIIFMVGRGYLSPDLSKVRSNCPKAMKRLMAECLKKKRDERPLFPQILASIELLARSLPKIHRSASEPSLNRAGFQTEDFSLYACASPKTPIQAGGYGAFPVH
Kind of assay: B-Raf Accelerated MEK ATPase assay (BRAMA). The assay is classed as biochemical. The settings on record: B-Raf pIC50, Table 1b; later runs, average pIC50 for the one or more runs, categorized. How it is done:
Compounds of the present invention were tested for B-Raf protein serine kinase inhibitory activity in a B-Raf Accelerated MEK ATPase assay (BRAMA). […] The BRAMA assay is a high sensitivity assay which measures an intrinsic MEK-mediated ATP hydrolysis uncoupled from downstream ERK phosphorylation by coupling the formation of ADP to NADH oxidation through the enzymes pyruvate kinase and lactate dehydrogenase. When ADP production is initiated by addition of catalytic amounts of an activated Raf enzyme and non-phosphorylated MEK, one observes robust ADP production concomitant with Raf-mediated phosphorylation of MEK. The method is disclosed in: C. Rominger, M. Schaber, E. May. Assay for B-Raf Activity Based on Intrinsic MEK ATPase Activity.
For the compound `C[C@@H](O)CNc1nccc(-c2sc(C(C)(C)C)nc2-c2cccc(NS(=O)(=O)c3c(F)cccc3F)c2F)n1` [Example 290, N-{3-[2-(1,1-dimethylethyl)-5-(2-{[(2R)-2-hydroxypropyl]amino}-4-pyrimidinyl)-1,3-thiazol-4-yl]-2-fluorophenyl}-2,6-difluorobenzenesulfonamide], the IC50 is ≤ 3.16 nM. On the same count and under the same terms, for `C[C@H](O)CNc1nccc(-c2sc(C(C)(C)C)nc2-c2cccc(NS(=O)(=O)c3c(F)cccc3F)c2F)n1` [Example 291, N-{3-[2-(1,1-dimethylethyl)-5-(2-{[(2S)-2-hydroxypropyl]amino}-4-pyrimidinyl)-1,3-thiazol-4-yl]-2-fluorophenyl}-2,6-difluorobenzenesulfonamide] the value was ≤ 3.16 nM; for `CC(C)(C)c1nc(-c2cccc(NS(=O)(=O)c3c(F)cccc3F)c2F)c(-c2ccnc(NCCC#N)n2)s1` [Example 292, N-{3-[5-{2-[(2-cyanoethyl)amino]-4-pyrimidinyl}-2-(1,1-dimethylethyl)-1,3-thiazol-4-yl]-2-fluorophenyl}-2,6-difluorobenzenesulfonamide], ≤ 3.16 nM; for `CC(C)(C)c1nc(-c2cccc(NS(=O)(=O)c3c(F)cccc3F)c2F)c(-c2ccnc(NCCO)n2)s1` [Example 293, N-[3-(2-(1,1-dimethylethyl)-5-{2-[(2-hydroxyethyl)amino]-4-pyrimidinyl}-1,3-thiazol-4-yl)-2-fluorophenyl]-2,6-difluorobenzenesulfonamide], ≤ 3.16 nM. Regarding `CC(C)(C)c1nc(-c2cccc(NS(=O)(=O)c3c(F)cccc3F)c2F)c(-c2ccnc(NC3CC3)n2)s1` [Example 294, N-{3-[5-[2-(cyclopropylamino)-4-pyrimidinyl]-2-(1,1-dimethylethyl)-1,3-thiazol-4-yl]-2-fluorophenyl}-2,6-difluorobenzenesulfonamide], the IC50 was ≤ 3.16 nM. Turning to `CC(C)(C)c1nc(-c2cccc(NS(=O)(=O)c3c(F)cccc3F)c2F)c(-c2ccnc(N)n2)o1` [Example 296, N-{3-[5-(2-amino-4-pyrimidinyl)-2-(1,1-dimethylethyl)-1,3-oxazol-4-yl]-2-fluorophenyl}-2,6-difluorobenzenesulfonamide], the IC50 was ≤ 3.16 nM.

Take `CC(C)(C)c1nc(-c2cccc(NS(=O)(=O)c3cc(F)ccc3F)c2F)c(-c2ccnc(N)n2)o1` [Example 297, N-{3-[5-(2-amino-4-pyrimidinyl)-2-(1,1-dimethylethyl)-1,3-oxazol-4-yl]-2-fluorophenyl}-2,5-difluorobenzenesulfonamide]: the IC50 was ≤ 3.16 nM.

Take `CC(C)(C)c1nc(-c2cccc(NS(=O)(=O)c3ccco3)c2F)c(-c2ccnc(N)n2)o1` [Example 298, N-{3-[5-(2-amino-4-pyrimidinyl)-2-(1,1-dimethylethyl)-1,3-oxazol-4-yl]-2-fluorophenyl}-2-furansulfonamide]: the IC50 is ≤ 3.16 nM.

On to `CC(C)(C)c1nc(-c2cccc(NS(=O)(=O)c3ccoc3)c2F)c(-c2ccnc(N)n2)o1` [Example 299, N-{3-[5-(2-amino-4-pyrimidinyl)-2-(1,1-dimethylethyl)-1,3-oxazol-4-yl]-2-fluorophenyl}-3-furansulfonamide], for which the IC50 was ≤ 3.16 nM. Regarding `O=S(=O)(Nc1cccc(-c2nc(C3CCOCC3)sc2-c2ccnc(NCCO)n2)c1F)c1ccoc1` [Example 300, N-{2-fluoro-3-[5-{2-[(2-hydroxyethyl)amino]-4-pyrimidinyl}-2-(tetrahydro-2H-pyran-4-yl)-1,3-thiazol-4-yl]phenyl}-3-furansulfonamide], the IC50 is ≤ 3.16 nM. `CCN(CC)CCNc1nccc(-c2sc(C3CCOCC3)nc2-c2cccc(NS(=O)(=O)c3ccoc3)c2F)n1` [Example 301, N-{3-[5-(2-{[2-(diethylamino)ethyl]amino}-4-pyrimidinyl)-2-(tetrahydro-2H-pyran-4-yl)-1,3-thiazol-4-yl]-2-fluorophenyl}-3-furansulfonamide]: the IC50 was ≤ 3.16 nM. Same read-out and setting: with `C[C@@H](O)CNc1nccc(-c2sc(C3CCOCC3)nc2-c2cccc(NS(=O)(=O)c3ccoc3)c2F)n1` [Example 302, N-{2-fluoro-3-[5-(2-{[(2R)-2-hydroxypropyl]amino}-4-pyrimidinyl)-2-(tetrahydro-2H-pyran-4-yl)-1,3-thiazol-4-yl]phenyl}-3-furansulfonamide] the figure was ≤ 3.16 nM; with `C[C@H](O)CNc1nccc(-c2sc(C3CCOCC3)nc2-c2cccc(NS(=O)(=O)c3ccoc3)c2F)n1` [Example 303, N-{2-fluoro-3-[5-(2-{[(2S)-2-hydroxypropyl]amino}-4-pyrimidinyl)-2-(tetrahydro-2H-pyran-4-yl)-1,3-thiazol-4-yl]phenyl}-3-furansulfonamide], ≤ 3.16 nM; with `CC(C)CNc1nccc(-c2sc(C3CCOCC3)nc2-c2cccc(NS(=O)(=O)c3ccoc3)c2F)n1` [Example 304, N-{2-fluoro-3-[5-{2-[(2-methylpropyl)amino]-4-pyrimidinyl}-2-(tetrahydro-2H-pyran-4-yl)-1,3-thiazol-4-yl]phenyl}-3-furansulfonamide], ≤ 3.16 nM. For the compound `O=S(=O)(Nc1cccc(-c2nc(C3CCOCC3)sc2-c2ccnc(NC3CCOCC3)n2)c1F)c1ccoc1` [Example 305, N-(2-fluoro-3-{2-(tetrahydro-2H-pyran-4-yl)-5-[2-(tetrahydro-2H-pyran-4-ylamino)-4-pyrimidinyl]-1,3-thiazol-4-yl}phenyl)-3-furansulfonamide], the IC50 is ≤ 3.16 nM. Consider `O=S(=O)(Nc1cccc(-c2nc(C3CCOCC3)sc2-c2ccnc(NCCN3CCCC3)n2)c1F)c1ccoc1` [Example 306, N-{2-fluoro-3-[5-(2-{[2-(1-pyrrolidinyl)ethyl]amino}-4-pyrimidinyl)-2-(tetrahydro-2H-pyran-4-yl)-1,3-thiazol-4-yl]phenyl}-3-furansulfonamide], for which the IC50 is ≤ 3.16 nM.

With `O=S(=O)(Nc1cccc(-c2nc(C3CCOCC3)sc2-c2ccnc(NCCN3CCOCC3)n2)c1F)c1ccoc1` [Example 307, N-{2-fluoro-3-[5-(2-{[2-(4-morpholinyl)ethyl]amino}-4-pyrimidinyl)-2-(tetrahydro-2H-pyran-4-yl)-1,3-thiazol-4-yl]phenyl}-3-furansulfonamide], the IC50 is ≤ 3.16 nM.

In the case of `CC(C)(C(N)=O)c1nc(-c2cccc(NS(=O)(=O)c3c(F)cccc3F)c2F)c(-c2ccnc(N)n2)s1` [Example 309, 2-[5-(2-Amino-4-pyrimidinyl)-4-(3-{[(2,6-difluorophenyl)sulfonyl]amino}-2-fluorophenyl)-1,3-thiazol-2-yl]-2-methylpropanamide], the IC50 is ≤ 3.16 nM. Consider `Cc1nccc(-c2sc(C(C)(C)N)nc2-c2cccc(NS(=O)(=O)c3c(F)cccc3F)c2F)n1` [Example 310, N-{3-[2-(1-amino-1-methylethyl)-5-(2-methyl-4-pyrimidinyl)-1,3-thiazol-4-yl]-2-fluorophenyl}-2,6-difluorobenzenesulfonamide], for which the IC50 was in the range of 31.6 to 1000 nM. In the case of `CC(C)(N)c1nc(-c2cccc(NS(=O)(=O)c3ccoc3)c2F)c(-c2ccnc(N)n2)s1` [Example 312, N-{3-[2-(1-amino-1-methylethyl)-5-(2-amino-4-pyrimidinyl)-1,3-thiazol-4-yl]-2-fluorophenyl}-3-furansulfonamide], the IC50 was ≤ 3.16 nM. For `CC1(c2nc(-c3cccc(NS(=O)(=O)c4ccoc4)c3F)c(-c3ccnc(N)n3)s2)CCNCC1` [Example 319, N-{3-[5-(2-amino-4-pyrimidinyl)-2-(4-methyl-4-piperidinyl)-1,3-thiazol-4-yl]-2-fluorophenyl}-3-furansulfonamide], the IC50 is ≤ 3.16 nM. Consider `Cc1nccc(-c2sc(C3(C)CCNCC3)nc2-c2cccc(NS(=O)(=O)c3ccoc3)c2F)n1` [Example 320, N-{2-fluoro-3-[2-(4-methyl-4-piperidinyl)-5-(2-methyl-4-pyrimidinyl)-1,3-thiazol-4-yl]phenyl}-3-furansulfonamide], for which the IC50 is ≤ 3.16 nM.

The same assay, now with this note: Table 1b; later runs, average pIC50 for the one or more runs, categorized; read-out: B-Raf pIC50 (converted).
As for `CC(C)(N)c1nc(-c2cccc(NS(=O)(=O)c3c(F)cccc3F)c2F)c(-c2ccnc(N)n2)s1` [Example 313, N-{3-[2-(1-amino-1-methylethyl)-5-(2-amino-4-pyrimidinyl)-1,3-thiazol-4-yl]-2-fluorophenyl}-2,6-difluorobenzenesulfonamide], the IC50 is 3.16 to 31.6 nM. Turning to `Cc1nccc(-c2sc(C3CCOCC3)nc2-c2cccc(NS(=O)(=O)c3ccoc3)c2F)n1` [Example 314, N-{2-fluoro-3-[5-(2-methyl-4-pyrimidinyl)-2-(tetrahydro-2H-pyran-4-yl)-1,3-thiazol-4-yl]phenyl}-3-furansulfonamide], the IC50 was 3.16 to 31.6 nM. Turning to `Cc1nccc(-c2sc(C3CCOCC3)nc2-c2cccc(NS(=O)(=O)c3c(F)cccc3F)c2F)n1` [Example 315, 2,6-difluoro-N-{2-fluoro-3-[5-(2-methyl-4-pyrimidinyl)-2-(tetrahydro-2H-pyran-4-yl)-1,3-thiazol-4-yl]phenyl}benzenesulfonamide], the IC50 is 3.16 to 31.6 nM.

In the case of `Cc1nccc(-c2sc(C(C)(C)CO)nc2-c2cccc(NS(=O)(=O)c3c(F)cccc3F)c2F)n1` [Example 316, 2,6-difluoro-N-{2-fluoro-3-[2-(2-hydroxy-1,1-dimethylethyl)-5-(2-methyl-4-pyrimidinyl)-1,3-thiazol-4-yl]phenyl}benzenesulfonamide], the IC50 was 3.16 to 31.6 nM. `Cc1nccc(-c2sc(C3CCNCC3)nc2-c2cccc(NS(=O)(=O)c3c(F)cccc3F)c2F)n1` [Example 321, 2,6-difluoro-N-{2-fluoro-3-[5-(2-methyl-4-pyrimidinyl)-2-(4-piperidinyl)-1,3-thiazol-4-yl]phenyl}benzenesulfonamide]: the IC50 is 3.16 to 31.6 nM.
